We go through 20 compounds from US12018023B2 (NERVIANO MEDICAL SCIENCES S.R.L., priority 2018, dated 2024).

Common to all, as to format: biochemical
The target of one test is T1, IDH2^R172K (Homo sapiens, UniProt P48735, R172K).
T1 construct: purchased not specified
T1 sequence (P48735 40-452 R172K): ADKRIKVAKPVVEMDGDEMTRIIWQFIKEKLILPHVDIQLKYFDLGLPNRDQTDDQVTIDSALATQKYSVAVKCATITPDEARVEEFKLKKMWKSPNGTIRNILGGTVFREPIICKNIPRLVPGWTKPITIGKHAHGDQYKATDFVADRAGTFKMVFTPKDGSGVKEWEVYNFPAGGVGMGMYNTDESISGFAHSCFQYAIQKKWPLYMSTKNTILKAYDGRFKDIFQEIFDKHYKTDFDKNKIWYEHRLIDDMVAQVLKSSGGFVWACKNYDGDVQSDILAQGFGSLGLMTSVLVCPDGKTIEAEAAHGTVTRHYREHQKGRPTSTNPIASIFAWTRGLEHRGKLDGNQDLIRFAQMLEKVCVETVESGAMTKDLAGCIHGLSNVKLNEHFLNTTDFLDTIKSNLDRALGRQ
The test can be described thus: NADPH depletion assay, IDH2 R172K. Here is the method: IDH mutated enzyme activity converting alpha-ketoglutarate to 2-hydroxyglutaric acid is measured using a NADPH depletion assay. In the assay the remaining cofactor is measured at the end of the reaction with the addition of a catalytic excess of diaphorase and resazurin, to generate a fluorescent signal in proportion to the amount of NADPH remaining. IDH1 WT enzyme as well as mutated isoforms IDH1^R132H, IDH1^R132C, and IDH^2R172K enzymes are commercially available proteins (see e.g. Sino Biological, Abcam, Active Motif or Creative BioMart).
IDH1^R132H homodimer enzyme are diluted to 8 nM, in 10 μL of Assay Buffer (150 mM NaCl, 50 mM Tris-HCl pH 7.6, 10 mM MgCl2, 0.001% Triton X-100, 4 mM β-mercaptoethanol); 0.2 uL of test compound, previously serially diluted 1 to 3, >10 experimental points from 1 mM in DMSO, is added and the mixture is incubated for 15 minutes at room temperature. The reaction is started with the addition of 10 μL of Substrate Mix (12 uM NADPH, 3.4 mM alpha-ketoglutarate in Assay Buffer) and the mixture is incubated for 60 minutes at room temperature. The reaction is terminated with the addition of 5 μl of Detection Buffer (100 μg/mL diaphorase, 30 μM resazurin, in IX Assay Buffer), and is incubated for 15 minute before reading on a ViewLux as platereader at Ex544/Em590.
Compounds are assayed for their activity against IDH2^R172K following the same assay as above with the following modifications: IDH2^R172K and alpha-ketoglutarate final concentrations in the Assay Buffer is 16 nM and 0.55 mM, respectively.

Another test concerns the target T2, IDH1^R132C (Homo sapiens, UniProt O75874, R132C).
T2 construct: purchased not specified
Description: NADPH depletion assay, IDH1 R132C. In short, it runs like this: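 IDH1 R132C (2 nM) preincubated 15 min at RT with compound in Tris-HCl pH 7.6/MgCl2 buffer, then 60 min RT with NADPH and 0.14 mM alpha-ketoglutarate. Remaining NADPH read by diaphorase/resazurin fluorescence (Ex544/Em590).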

Test [1] has as its target T3, IDH1^R132H homodimer enzyme (Homo sapiens, UniProt O75874, R132H).
T3 construct: purchased not specified
Description: NADPH depletion assay, IDH1 R132H. Summed up: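 IDH1 R132H enzyme (8 nM as diluted) in Tris-HCl pH 7.6 with 10 mM MgCl2, 0.001% Triton X-100 and 4 mM β-mercaptoethanol is preincubated 15 min at RT with compound. Substrate mix (12 uM NADPH, 3.4 mM α-ketoglutarate) is added for 60 min; remaining NAD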

T3 sequence (O75874 whole entry R132H): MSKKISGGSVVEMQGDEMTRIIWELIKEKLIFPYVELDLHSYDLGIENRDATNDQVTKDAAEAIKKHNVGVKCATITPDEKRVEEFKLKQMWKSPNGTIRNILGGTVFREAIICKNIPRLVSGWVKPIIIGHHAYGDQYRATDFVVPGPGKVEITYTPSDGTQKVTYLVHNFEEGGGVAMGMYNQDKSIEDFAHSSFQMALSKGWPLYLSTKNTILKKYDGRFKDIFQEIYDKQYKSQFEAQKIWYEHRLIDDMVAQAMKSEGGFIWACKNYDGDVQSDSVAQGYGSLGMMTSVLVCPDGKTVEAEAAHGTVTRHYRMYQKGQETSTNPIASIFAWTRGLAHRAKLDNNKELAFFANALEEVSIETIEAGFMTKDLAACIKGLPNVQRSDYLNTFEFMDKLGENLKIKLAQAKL
T2 sequence (O75874 whole entry R132C): as the sequence (O75874 whole entry R132H) above, with H132C counted along it

As for `C[C@H](Nc1ncc2ccc(=O)n(Cc3ccc(F)cc3)c2n1)c1ccc(Cl)cc1` [cpd 28, 2-{[(1S)-1-(4-chlorophenyl)ethyl]amino}-8-(4-fluorobenzyl)pyrido[2,3-d]pyrimidin-7(8H)-one], the IC50 amounted to 2510 nM against IDH2^R172K, 590 nM on IDH1^R132C and 1480 nM in test [1].
The corresponding values for `C=CC(=O)N1CCN(Cc2ccc([C@H](C)Nc3ncc4ccc(=O)n([C@@H](C)CF)c4n3)cc2)CC1` [cpd 198, 2-{[(1S)-1-{4-[(4-acryloylpiperazin-1-yl)methyl]phenyl}ethyl]amino}-8-[(2S)-1-fluoropropan-2-yl]pyrido[2,3-d]pyrimidin-7(8H)-one] are 248 nM, 401 nM and 132 nM.
For the compound `C[C@H](Nc1ncc2ccc(=O)n(Cc3ccccc3F)c2n1)c1ccc(Cl)cc1` [cpd 22, 2-{[(1S)-1-(4-chlorophenyl)ethyl]amino}-8-(2-fluorobenzyl)pyrido[2,3-d]pyrimidin-7(8H)-one], the values for the IC50 (against IDH2^R172K; on IDH1^R132C; in test [1]) were 2990 nM, 195 nM and 451 nM, respectively.
In the same order, the values of `C[C@H](Nc1ncc2ccc(=O)n(CC(C)(C)C)c2n1)c1ccc(CN2CCC(F)(F)C2)cc1` [cpd 148, 2-{[(1S)-1-{4-[(3,3-difluoropyrrolidin-1-yl)methyl]phenyl}ethyl]amino}-8-(2,2-dimethylpropyl)pyrido[2,3-d]pyrimidin-7(8H)-one] are 5830 nM, 109 nM and 187 nM.
The corresponding values for `CC(C)Cn1c(=O)ccc2cnc(N[C@@H](C)c3ccc(Cl)cc3)nc21` [cpd 19, 2-{[(1S)-1-(4-chlorophenyl)ethyl]amino}-8-(2-methylpropyl)pyrido[2,3-d]pyrimidin-7(8H)-one] are 6680 nM, 203 nM and 410 nM.
Consider `C=CC(=O)N1CCN(Cc2ccc([C@H](C)Nc3ncc4ccc(=O)n([C@@H](C)CO)c4n3)cc2)CC1` [cpd 199, 2-{[(1S)-1-{4-[(4-acryloylpiperazin-1-yl)methyl]phenyl}ethyl]amino}-8-[(2S)-1-hydroxypropan-2-yl]pyrido[2,3-d]pyrimidin-7(8H)-one], for which the IC50 on IDH2^R172K worked out at 717 nM; on IDH1^R132C it was 1530 nM; in test [1], 1400 nM.
The corresponding values for `C[C@H](Nc1ncc2ccc(=O)n(Cc3cccc(C(F)(F)F)c3)c2n1)c1ccc(Cl)cc1` [cpd 24, 2-{[(1S)-1-(4-chlorophenyl)ethyl]amino}-8-[3-(trifluoromethyl)benzyl]pyrido[2,3-d]pyrimidin-7(8H)-one] are 2960 nM, 1720 nM and 3530 nM.
In the same order, the values of `CCC(C)n1c(=O)ccc2cnc(N[C@@H](C)c3ccc(CN4CCCC(F)(F)C4)cc3)nc21` (stereo partly drawn) [cpd 61, 8-(butan-2-yl)-2-{[(1S)-1-{4-[(3,3-difluoropiperidin-1-yl)methyl]phenyl}ethyl]amino}pyrido[2,3-d]pyrimidin-7(8H)-one] are 5020 nM, 38 nM and 71 nM.
Consider `COC(=O)C(C)(C)Cn1c(=O)ccc2cnc(N[C@@H](C)c3ccc4ccccc4c3)nc21` [cpd 37, methyl 2,2-dimethyl-3-[2-{[(1S)-1-(naphthalen-2-yl)ethyl]amino}-7-oxopyrido[2,3-d]pyrimidin-8(7H)-yl]propanoate], for which the IC50 at IDH2^R172K was determined as 4850 nM; against IDH1^R132C it was 805 nM; in test [1], 1480 nM.
In the same order, the values of `CC[C@@H](C)n1c(=O)ccc2cnc(N[C@@H](C)c3ccc(CN4CCCC(F)(F)C4)cc3)nc21` [cpd 149, 8-[(2R)-butan-2-yl]-2-{[(1S)-1-{4-[(3,3-difluoropiperidin-1-yl)methyl]phenyl}ethyl]amino}pyrido[2,3-d]pyrimidin-7(8H)-one] are 3330 nM, 48 nM and 85 nM.
`CC(C)Cn1c(=O)ccc2cnc(N[C@@H](C)c3ccc(CN4CCC(F)(F)CC4)cc3)nc21` [cpd 95, 2-{[(1S)-1-{4-[(4,4-difluoropiperidin-1-yl)methyl]phenyl}ethyl]amino}-8-(2-methylpropyl)pyrido[2,3-d]pyrimidin-7(8H)-one]: the IC50 against IDH2^R172K came out at 5160 nM; against IDH1^R132C it was 162 nM; in test [1] it was 425 nM.
Consider `CC(C)[C@H](C)n1c(=O)ccc2cnc(N[C@@H](C)c3ccc(Br)cc3)nc21` [cpd 163, 2-{[(1S)-1-(4-bromophenyl)ethyl]amino}-8-[(2S)-3-methylbutan-2-yl]pyrido[2,3-d]pyrimidin-7(8H)-one], for which the values for the half-inhibitory concentration (IC50) (at IDH2^R172K; against IDH1^R132C; in test [1]) were 6600 nM, 87 nM and 163 nM, respectively.
In the same order, the values of `C[C@H](Nc1ncc2ccc(=O)n(Cc3ccc(C#N)cc3)c2n1)c1ccc(Cl)cc1` [cpd 27, 4-{[2-{[(1S)-1-(4-chlorophenyl)ethyl]amino}-7-oxopyrido[2,3-d]pyrimidin-8(7H)-yl]methyl}benzonitrile] are 2600 nM, 336 nM and 1070 nM.
The corresponding values for `C=CC(=O)N1CC=C(c2ccc([C@H](C)Nc3ncc4ccc(=O)n([C@@H](C)C(C)C)c4n3)nc2)CC1` [cpd 194, 2-{[(1S)-1-(1′-acryloyl-1′,2′,3′,6′-tetrahydro-3,4′-bipyridin-6-yl)ethyl]amino}-8-[(2S)-3-methylbutan-2-yl]pyrido [2,3-d]pyrimidin-7(8H)-one] are 1790 nM, 200 nM and 338 nM.
`COC(=O)c1ccc([C@H](C)Nc2ncc3ccc(=O)n(CC(C)(C)C)c3n2)cc1` [cpd 11, methyl 4-[(1S)-1-{[8-(2,2-dimethylpropyl)-7-oxo-pyrido[2,3-d]pyrimidin-2-yl]amino}ethyl]benzoate]: the concentration for half-maximal inhibition (IC50) is 6100 nM against IDH2^R172K, 181 nM against IDH1^R132C and 362 nM in test [1].
In the same order, the values of `C[C@H](Nc1ncc2ccc(=O)n(Cc3ccccc3)c2n1)c1ccc(Cl)cc1` [cpd 16, 8-benzyl-2-{[(1S)-1-(4-chlorophenyl)ethyl]amino}pyrido[2,3-d]pyrimidin-7(8H)-one] are 2700 nM, 460 nM and 1000 nM.
In the same order, the values of `CC(Nc1ncc2ccc(=O)n(Cc3c(F)cccc3F)c2n1)c1ccc(CN2CCC(F)(F)CC2)cc1` (stereo not drawn) [cpd 98, 8-(2,6-difluorobenzyl)-2-[(1-{4-[(4,4-difluoropiperidin-1-yl)methyl]phenyl}ethyl)amino]pyrido[2,3-d]pyrimidin-7(8H)-one] are 5340 nM, 217 nM and 366 nM.
Consider `CC(Nc1ncc2ccc(=O)n(Cc3ccccc3F)c2n1)c1ccc(CN2CCC(F)(F)CC2)cc1` (stereo not drawn) [cpd 97, 2-[(1-{4-[(4,4-difluoropiperidin-1-yl)methyl]phenyl}ethyl)amino]-8-(2-fluorobenzyl)pyrido[2,3-d]pyrimidin-7(8H)-one], for which the half-inhibitory concentration (IC50) on IDH2^R172K was 5030 nM; at IDH1^R132C, 323 nM; in test [1], 524 nM.
As to `COC(=O)c1ccc([C@H](C)Nc2ncc3ccc(=O)n(Cc4ccc(F)cc4)c3n2)cc1` [cpd 6, methyl 4-[(1S)-1-{[8-(4-fluorobenzyl)-7-oxo-pyrido[2,3-d]pyrimidin-2-yl]amino}ethyl]benzoate], the IC50 against IDH2^R172K amounted to 6650 nM; at IDH1^R132C it was 1340 nM; in test [1], 3340 nM.
For the compound `CC(C)[C@H](C)n1c(=O)ccc2cnc(N[C@@H](C)c3ccc(-c4ccccc4C#N)cc3)nc21` [cpd 165, 4′-[(1S)-1-({8-[(2S)-3-methylbutan-2-yl]-7-oxo-7,8-dihydropyrido[2,3-d]pyrimidin-2-yl}amino)ethyl]biphenyl-2-carbonitrile], the half-inhibitory concentration (IC50) against IDH2^R172K amounted to 5660 nM; on IDH1^R132C, 85 nM; in test [1], 157 nM.
